≈ marks a conversion by molar mass, not a printed value.
How the values were obtained:
[1] = system: E. faecalis LMG16216 (VRE); assay type: cell-based, Enterococcus faecalis; settings: LMG16216
Description: (§1) Each experiment was performed in triplicate.

L. lactis MG1363 [2] = assay type: cell-based, Lactococcus lactis; settings: MG1363
Description: as §1

L. lactis MG1363 [3] = experiment: Time-kill assay; assay type: cell-based, Lactococcus lactis; settings: 5-fold MIC
Description: The bactericidal activity of nisin, nisin(1–22), and rombocin was evaluated according to a previously described procedure based on Guo et al.[38] Briefly, an overnight culture of L. lactis MG1363 was diluted 50-fold in GM17 medium and incubated at 30 °C. The bacteria were grown until reaching an optical density at 600 nm (OD600) of 0.5, at which point the cell concentration was adjusted to 5 × 10^5 CFU/mL. Subsequently, the bacteria were challenged with a 5-fold MIC of each peptide. A control sample of an untreated cell suspension was included. At specific time points, 50 μL aliquots were collected, and undiluted and 10-fold serially diluted suspensions were plated on GM17 agar. The plates were incubated overnight at 30 °C, and the resulting colonies were counted and calculated as colony-forming units per milliliter (CFU/mL). Both assays were performed in triplicate to ensure reproducibility.

L. lactis [4] = experiment: Membrane potential determination (DiSC3(5) probe); assay type: cell-based, Lactococcus lactis; settings: 5× MIC, 10 mM HEPES with 10 mM glucose pH 7.2, 2 μM DiSC3(5), 25 min
Description: To measure the membrane potential, the membrane potential-sensitive fluorescent dye DiSC3(5) was utilized. L. lactis was cultured to an OD600 of 0.8, pelleted at 5000g for 5 min, and washed twice in 10 mM HEPES with 10 mM glucose (pH 7.2). The cell density was adjusted to an OD600 of 0.2 and loaded with 2 μM DiSC3(5) dye, followed by 20 min of incubation in the dark to stabilize the probe fluorescence. Next, the cell suspension was added to a 96-well microplate and incubated for 5 min with 100 mM KCl. […] The fluorescence spectrometer’s excitation and emission wavelengths were adjusted to 622 and 670 nm, respectively. Three technical replicates were performed, and the representative example is shown.

[5] = Thermal stability by residual antimicrobial activity; assay type: physicochemical; settings: residual antimicrobial activity vs L. lactis 1363, agar well, triplicate
Description: To investigate the impact of proteolytic enzymes, pH, and temperature on the antimicrobial activity, a representative strain of L. lactis 1363 was utilized. For the proteolytic enzyme assay, 40 μL of peptide (1 mg/mL) was incubated with or without final concentrations of 1 mg/mL proteolytic enzymes at room temperature for 3 h, followed by an activity test in the agar well. To determine pH stability, the pH was adjusted to 2, 4, 7, and 10 using 1 M HCl or NaOH. The temperature stability was assessed by incubating the peptide at 22, 50, 70, and 90 °C for a specified duration. All experiments were performed in triplicate.
Overnight cultures of the test strains were inoculated at a final concentration of 0.1% (v/v) into melted LB agar at 45 °C and then poured onto plates. After solidification, 8 mm wells were created and filled with 40 μL of the lantibiotic solution (1 mg/mL). The lantibiotics were activated by adding 5 μL of NisP directly to the well. The plates were then incubated overnight at 30 °C, and the zone of inhibition was measured. Zone diameters were calculated by subtracting the area of the well (πr^2) from the area of the zone (πr^2) and reported in millimeters. To determine the peptide concentration, purified and lyophilized peptides were resuspended in 0.05% aqueous acetic acid solution and quantified by HPLC following the protocol described by Schmitt et al.[44] […]

L. lactis [6] = experiment: Potassium ion efflux assay (PBFI probe); assay type: cell-based, Lactococcus lactis; settings: 5× MIC, 10 mM HEPES pH 7.2 with 0.5% glucose, 10 μM PBFI
Description: To perform the K^+ release assay, we used the K^+-specific fluorescent probe PBFI. L. lactis was cultured in GM17 until the OD600 reached 0.6, after which the cells were harvested (5000g, 5 min) and washed twice with 10 mM HEPES (pH 7.2) with 0.5% glucose. The cells were then resuspended in the same buffer containing 10 μM PBFI. Data were analyzed using a Varioskan LUX Multimode Microplate Reader; cells were excited at 346 nm, and the fluorescence emission was measured at 505 nm to establish a baseline signal before the addition of 5-fold MIC antibiotics, after which data were collected. Nisin was used as a positive control.

With `C=C1NC(=O)[C@H]([C@@H](C)CC)NC(=O)C(NC(=O)C(=CC)NC(=O)[C@@H](N)[C@@H](C)CC)CSC[C@@H](C(=O)NC2C(=O)N[C@@H](C)C(=O)NCC(=O)N[C@H](C(=O)N[C@H](C(=O)NC3C(=O)NCC(=O)N[C@@H](C(C)C)C(=O)N[C@@H]([C@@H](C)CC)C(=O)N[C@@H](CCSC)C(=O)NC(=CC)C(=O)N[C@H](C(=O)N[C@@H](CCSC)C(=O)NC4CSC[C@@H](C(=O)N[C@@H](CCCCN)C(=O)O)NC(=O)CNC(=O)[C@H](CC(N)=O)NC4=O)CSC3C)[C@@H](C)CC)CSC2C)NC(=O)[C@H](CC(C)C)NC1=O` (some centres unmarked) [rombocin A] the MIC [1] was 50 µg/mL (≈ 21 µM), the MIC (L. lactis MG1363 [2]) was 0,78 μg/mL and the “time to complete killing” value (L. lactis MG1363 [3]; L. lactis MG1363, 5 × 10^5 CFU/mL, CFU counting, triplicate) was 18 h. The “bacteriostatic or bactericidal activity” value (L. lactis MG1363 [3]; L. lactis, time-dependent killing) was “strong bactericidal activity”, the “membrane depolarization (DiSC3(5) fluorescence)” value (L. lactis [4]) was “significant membrane depolarization” and the “incubation time to complete loss of activity” value ([5]; 90 °C) was 7 h. The reduction in activity ([5]; temperatures between 22 and 50 °C, up to 10 h) was “less than 30%” and the “release of intracellular potassium ions (PBFI fluorescence)” value (L. lactis [6]) was “did not have this effect”.

Source: publication PMC10804407, “Rombocin, a Short Stable Natural Nisin Variant, Displays Selective Antimicrobial Activity against Listeria monocytogenes and Employs a Dual Mode of Action to Kill Target Bacterial Strains” (ACS Synthetic Biology, 2024)
